A word on the IC50: it is the concentration that gives 50% inhibition.

His-Tagged hOGA (human O-GlcNAcase), sequence (O60502 whole entry): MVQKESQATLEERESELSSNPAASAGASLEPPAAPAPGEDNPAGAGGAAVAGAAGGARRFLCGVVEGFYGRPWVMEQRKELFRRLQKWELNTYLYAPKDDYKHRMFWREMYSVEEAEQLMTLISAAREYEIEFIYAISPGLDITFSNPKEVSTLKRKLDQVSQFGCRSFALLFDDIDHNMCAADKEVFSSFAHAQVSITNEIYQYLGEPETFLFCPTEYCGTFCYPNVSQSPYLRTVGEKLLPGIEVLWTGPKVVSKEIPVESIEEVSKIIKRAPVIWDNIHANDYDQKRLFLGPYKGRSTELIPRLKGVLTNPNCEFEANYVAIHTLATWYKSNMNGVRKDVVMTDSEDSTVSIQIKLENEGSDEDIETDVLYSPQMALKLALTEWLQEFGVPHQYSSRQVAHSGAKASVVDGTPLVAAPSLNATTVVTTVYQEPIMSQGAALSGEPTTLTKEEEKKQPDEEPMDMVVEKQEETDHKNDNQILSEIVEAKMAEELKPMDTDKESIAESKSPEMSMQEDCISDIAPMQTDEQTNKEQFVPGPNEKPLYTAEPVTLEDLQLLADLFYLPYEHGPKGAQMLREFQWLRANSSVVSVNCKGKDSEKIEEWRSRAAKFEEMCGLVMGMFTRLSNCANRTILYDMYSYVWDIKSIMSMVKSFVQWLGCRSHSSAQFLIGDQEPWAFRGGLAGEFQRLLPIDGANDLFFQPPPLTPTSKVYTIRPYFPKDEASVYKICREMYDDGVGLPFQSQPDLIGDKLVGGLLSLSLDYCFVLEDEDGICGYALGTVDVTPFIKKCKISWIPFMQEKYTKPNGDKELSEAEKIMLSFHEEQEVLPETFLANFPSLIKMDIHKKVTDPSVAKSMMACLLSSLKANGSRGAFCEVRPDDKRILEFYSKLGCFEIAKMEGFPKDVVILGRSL

This assay concerns the target His-Tagged hOGA (human O-GlcNAcase) (Homo sapiens (Human), UniProt O60502). Nature of the assay: Human O-GlcNAcase enzyme inhibition assay (Example B01). The format is biochemical. To be noted: OGA enzyme inhibition assay; activity range classes defined in μM; read-out: OGA IC50.
As for `Cc1csc(C2CCN(C(C)c3ccc4c(c3)OCO4)CC2)n1` (racemic) [Example 1, 2-(1-(1-(Benzo[d][1,3]dioxol-5-yl)ethyl)piperidin-4-yl)-4-methylthiazole], the IC50 is 0.2 to 1 µM.

`Cc1nnc(C2CCN(C(C)c3ccc4c(c3)OCO4)CC2)o1` (racemic) [Example 2, 2-(1-(1-(benzo[d][1,3]dioxol-5-yl)ethyl)piperidin-4-yl)-5-methyl-1,3,4-oxadiazole]: the IC50 is 0.2 to 1 µM.

On to `Cc1cnn(C2CCN(C(C)c3ccc4c(c3)OCO4)CC2)c1` (racemic) [Example 3, 1-(1-(benzo[d][1,3]dioxol-5-yl)ethyl)-4-(4-methyl-1H-pyrazol-1-yl)piperidine], for which the IC50 was in the range of 1 to 10 µM.

With `Cc1noc(C2CCN(C(C)c3ccc4c(c3)OCO4)CC2)n1` (racemic) [Example 4, 5-(1-(1-(Benzo[d][1,3]dioxol-5-yl)ethyl)piperidin-4-yl)-3-methyl-1,2,4-oxadiazole], the IC50 was 0.2 to 1 µM.

For `CC(c1ccc2c(c1)OCO2)N1CCN(c2nc(-c3ccccc3)cs2)CC1` (racemic) [Example 5, 2-(4-(1-(Benzo[d][1,3]dioxol-5-yl)ethyl)piperazin-1-yl)-4-phenylthiazole], the 50% inhibitory concentration (IC50) is 0.2 to 1 µM.

As for `COc1ccc(-c2csc(N3CCN(C(C)c4ccc5c(c4)OCO5)CC3)n2)cc1` (racemic) [Example 6, 2-(4-(1-(Benzo[d][1,3]dioxol-5-yl)ethyl)piperazin-1-yl)-4-(4-methoxyphenyl)thiazole], the 50% inhibitory concentration (IC50) lay within 1 to 10 µM.

On to `CC(c1ccc2c(c1)OCO2)N1CCN(c2nccs2)CC1` (racemic) [Example 7, 2-(4-(1-(Benzo[d][1,3]dioxol-5-yl)ethyl)piperazin-1-yl)thiazole], for which the IC50 lay within 0.2 to 1 µM.

For the compound `CC(c1ccc2c(c1)OCO2)N1CCN(c2cnc(I)nc2)CC1` (racemic) [Example 8, -5-(4-(1-(benzo[d][1,3]dioxol-5-yl)ethyl)piperazin-1-yl)-2-iodopyrimidine], the IC50 fell in the range of 0.05 to 0.2 µM.

Turning to `Cc1ccnc(N2CCN(C(C)c3ccc4c(c3)OCO4)CC2)n1` (racemic) [Example 9, 2-(4-(1-(Benzo[d][1,3]dioxol-5-yl)ethyl)piperazin-1-yl)-4-methylpyrimidine], the IC50 is 0.2 to 1 µM.

As for `CC(c1ccc2c(c1)OCO2)N1CCN(c2ccccn2)CC1` (racemic) [Example 10, 1-(1-(Benzo[d][1,3]dioxol-5-yl)ethyl)-4-(pyridin-2-yl)piperazine], the concentration for half-maximal inhibition (IC50) lay within 0.2 to 1 µM.

As for `CC(C)c1csc(N2CCN(C(C)c3ccc4c(c3)OCO4)CC2)n1` (racemic) [Example 12, 2-(4-(1-(Benzo[d][1,3]dioxol-5-yl)ethyl)piperazin-1-yl)-4-isopropylthiazole], the IC50 lay within 0.2 to 1 µM.

As for `CC(c1ccc2c(c1)OCO2)N1CCN(c2nc(C(F)(F)F)cs2)CC1` (racemic) [Example 13, 2-(4-(1-(Benzo[d][1,3]dioxol-5-yl)ethyl)piperazin-1-yl)-4-(trifluoromethyl)thiazole], the 50% inhibitory concentration (IC50) lay within 0.2 to 1 µM.

For `Cc1ccc(N2CCN(C(C)c3ccc4c(c3)OCO4)CC2)nc1` (racemic) [Example 14, 1-(1-(Benzo[d][1,3]dioxol-5-yl)ethyl)-4-(5-methylpyridin-2-yl)piperazine], the IC50 was 0.2 to 1 µM.

Take `CC(c1ccc2c(c1)OCO2)N1CCN(c2nc(C(C)(C)C)cs2)CC1` (racemic) [Example 16, 2-(4-(1-(benzo[d][1,3]dioxol-5-yl)ethyl)piperazin-1-yl)-4-(tert-butyl)thiazole]: the IC50 was 1 to 10 µM.

As for `CCOC(=O)c1csc(N2CCN(C(C)c3ccc4c(c3)OCO4)CC2)n1` (racemic) [Example 17, Ethyl 2-(4-(1-(benzo[d][1,3]dioxol-5-yl)ethyl)piperazin-1-yl)thiazole-4-carboxylate], the 50% inhibitory concentration (IC50) lay within 0.2 to 1 µM.

As for `CC(c1ccc2c(c1)OCO2)N1CCN(c2nc(C(=O)O)cs2)CC1` (racemic) [Example 18, 2-(4-(1-(Benzo[d][1,3]dioxol-5-yl)ethyl)piperazin-1-yl)thiazole-4-carboxylic acid], the IC50 lay in the range of 0.05 to 0.2 µM.

Source of the values: patent US10336775B2 (Asceneuron SA, priority 2014, dated 2019).
